Measured values: ChEMBL document CHEMBL6078685, “Potential COX-2 inhibitors modulating NF-κB/MAPK signaling pathways: Design, synthesis and evaluation of anti-inflammatory activity of Pterostilbene-carboxylic acid derivatives with an oxime ether moiety” (Bioorg Med Chem, 2025)

How the values were obtained:
RAW264.7 [1] = experiment: Inhibition of LPS-induced NO release in mouse RAW264.7 cells at 20 uM preincubated with compound for 48 hrs followed by LPS addition and measured after 24 hrs by nitric oxide assay relative to control; format: functional; settings: time 72 hrs
RAW264.7 [2] = experiment: Cytotoxicity against mouse RAW264.7 cells assessed as reduction in cell viability at 20 uM incubated for 48 hrs by MTT method; format: toxicity, cell-based; settings: raw264.7, 48 h
RAW264.7 [3] = experiment: Downregulation of COX-2 expression in LPS-induced mouse RAW264.7 cells preincubated for 3 hrs followed by LPS addition for 30 mins by Western blotting analysis; format: functional, cell-based; settings: time 3.5 hrs
RAW264.7 [4] = experiment: cells; settings: Mus musculus
Description: Antiinflammatory activity against mouse RAW264.7 cells assessed as inhibition of LPS-induced IIL-1beta secretion pretreated with LPS for 3 hrs followed by compound addition and measured after 24 hrs by ELISA

RAW264.7 [5] = experiment: Antiinflammatory activity against mouse RAW264.7 cells assessed as decrease in LPS-induced IIL-6 release preincubated for 3 hrs followed by LPS addition for 30 mins by Western blotting analysis; format: functional, cell-based; settings: dose 4-16 µM, time 3.5 hrs
RAW264.7 [6] = experiment: cells; settings: Mus musculus; remark: listed apart in the source
Description: Antiinflammatory activity against mouse RAW264.7 cells assessed as inhibition of LPS-induced TNF-alpha secretion pretreated with LPS for 3 hrs followed by compound addition and measured after 24 hrs by ELISA

RAW264.7 [7] = experiment: Antiinflammatory activity against mouse RAW264.7 cells assessed as decrease in LPS-induced IIL-1beta release preincubated for 3 hrs followed by LPS addition for 30 mins by Western blotting analysis; format: functional, cell-based; settings: dose 4-16 µM, time 3.5 hrs
RAW264.7 [8] = experiment: Antiinflammatory activity against mouse RAW264.7 cells assessed as decrease in LPS-induced TNF-alpha release preincubated for 3 hrs followed by LPS addition for 30 mins by Western blotting analysis; format: functional, cell-based; settings: dose 4-16 µM
RAW264.7 [9] = experiment: Inhibition of LPS-induced NO release in mouse RAW264.7 cells preincubated with compound for 48 hrs followed by LPS addition and measured after 24 hrs by nitric oxide assay; format: functional, cell-based
RAW264.7 [10] = experiment: Downregulation of iNOS expression in LPS-induced mouse RAW264.7 cells preincubated for 3 hrs followed by LPS addition for 30 mins by Western blotting analysis; format: functional, cell-based; settings: time 3.5 hrs
RAW264.7 [11] = experiment: cells; settings: Mus musculus; remark: listed apart in the source
Description: Antiinflammatory activity against mouse RAW264.7 cells assessed as inhibition of LPS-induced IIL-6 secretion pretreated with LPS for 3 hrs followed by compound addition and measured after 24 hrs by ELISA

| SMILES | inhibition at 20 µM (RAW264.7 [1]) [%] | Activity (RAW264.7 [2]) | other results |
| --- | --- | --- | --- |
| CCCCO/N=C/c1c(/C=C/c2ccc(OCC(=O)OCC)cc2)cc(OC)cc1OC | 17.2 | Non-toxic | – |
| COc1cc(/C=C/c2ccc(OCC(=O)NCCCO)cc2)c(/C=N/OCc2ccc(F)cc2)c(OC)c1 | 86.7 | Non-toxic | Activity (RAW264.7 [3]): Dose-dependent-effect; IC50 (RAW264.7 [4]): 7.36 µM; Activity (RAW264.7 [5]): Dose-dependent-effect; IC50 (RAW264.7 [6]): 9.14 µM; Activity (RAW264.7 [7]): Dose-dependent-effect; Activity (RAW264.7 [8]): Dose-dependent-effect; IC50 (RAW264.7 [9]): 9.87 µM; Activity (RAW264.7 [10]): Dose-dependent-effect; IC50 (RAW264.7 [11]): 6.76 µM |
| CCNC(=O)COc1ccc(/C=C/c2cc(OC)cc(OC)c2/C=N/OCc2ccc(F)cc2)cc1 | 68.5 | Non-toxic | IC50 (RAW264.7 [9]): 14.6 µM |
| C#CCO/N=C/c1c(/C=C/c2ccc(OCC(=O)OCC)cc2)cc(OC)cc1OC | 21.8 | Non-toxic | – |
| COc1cc(/C=C/c2ccc(OCC(=O)O)cc2)c(/C=N/OCc2ccc(C(F)(F)F)cc2)c(OC)c1 | 21.8 | Non-toxic | – |
| CCOC(=O)COc1ccc(/C=C/c2cc(OC)cc(OC)c2/C=N/OCc2ccc(Cl)cc2)cc1 | 29 | Non-toxic | – |
| CCCCCC(=O)OCCCNC(=O)COc1ccc(/C=C/c2cc(OC)cc(OC)c2/C=N/OCc2ccc(F)cc2)cc1 | 33.1 | Non-toxic | – |
| CCOC(=O)COc1ccc(/C=C/c2cc(OC)cc(OC)c2/C=N/OCc2ccc(C)cc2)cc1 | 20 | Non-toxic | – |
| COc1cc(/C=C/c2ccc(OCC(=O)O)cc2)c(/C=N/OCc2ccc(Cl)cc2)c(OC)c1 | 24.8 | Non-toxic | – |
| COc1cc(/C=C/c2ccc(OCC(=O)O)cc2)c(/C=N/OCc2ccc(Br)c(F)c2)c(OC)c1 | 25.8 | Non-toxic | – |
| CCNC(=O)COc1ccc(/C=C/c2cc(OC)cc(OC)c2/C=N/OCc2ccc(Cl)cc2)cc1 | 49.2 | Non-toxic | – |
| COc1cc(/C=C/c2ccc(OCC(=O)O)cc2)c(/C=N/OCc2ccccc2)c(OC)c1 | 25.2 | Non-toxic | – |
| COc1cc(/C=C/c2ccc(OCC(=O)NCCCO)cc2)c(/C=N/OCc2ccc(Cl)cc2)c(OC)c1 | 64.6 | Non-toxic | IC50 (RAW264.7 [9]): 18.1 µM |
| CCNC(=O)COc1ccc(/C=C/c2cc(OC)cc(OC)c2/C=N/OCc2ccc(Br)c(F)c2)cc1 | 42.1 | Non-toxic | – |
| CCOC(=O)COc1ccc(/C=C/c2cc(OC)cc(OC)c2/C=N/OCc2ccc(Br)c(F)c2)cc1 | 29.3 | Non-toxic | – |
| CCCCO/N=C/c1c(/C=C/c2ccc(OCC(=O)O)cc2)cc(OC)cc1OC | 20.2 | Non-toxic | – |
| CCCC(=O)OCCCNC(=O)COc1ccc(/C=C/c2cc(OC)cc(OC)c2/C=N/OCc2ccc(F)cc2)cc1 | 47.1 | Non-toxic | – |

| SMILES | inhibition at 20 µM (RAW264.7 [1]) [%] | Activity (RAW264.7 [2]) | other results |
| --- | --- | --- | --- |
| COc1cc(/C=C/c2ccc(OCC(=O)NCCCO)cc2)c(/C=N/OCc2ccccc2)c(OC)c1 | 34.7 | Non-toxic | – |
| CCOC(=O)COc1ccc(/C=C/c2cc(OC)cc(OC)c2/C=N/OCc2ccc(C(F)(F)F)cc2)cc1 | 18.6 | Non-toxic | – |
| CCCCCCCC(=O)OCCCNC(=O)COc1ccc(/C=C/c2cc(OC)cc(OC)c2/C=N/OCc2ccc(F)cc2)cc1 | 20.8 | Non-toxic | – |
| COc1cc(/C=C/c2ccc(OCC(=O)O)cc2)c(/C=N/OCc2ccc(F)cc2)c(OC)c1 | 26.1 | Non-toxic | – |
| Cc1ccc(-c2cc(C(F)(F)F)nn2-c2ccc(S(N)(=O)=O)cc2)cc1 [CELECOXIB] | 29.4 | – | – |
| CCOC(=O)COc1ccc(/C=C/c2cc(OC)cc(OC)c2/C=N/OCc2ccc(F)cc2)cc1 | 28.6 | Non-toxic | – |
| CCOC(=O)COc1ccc(/C=C/c2cc(OC)cc(OC)c2/C=N/OCc2ccccc2)cc1 | 37.8 | Non-toxic | – |
| CCNC(=O)COc1ccc(/C=C/c2cc(OC)cc(OC)c2/C=N/OCc2ccccc2)cc1 | 71.3 | Non-toxic | IC50 (RAW264.7 [9]): 12.3 µM |
| CCOC(=O)COc1ccc(/C=C/c2cc(OC)cc(OC)c2/C=N/OCc2ccc(Br)cc2)cc1 | 19.5 | Non-toxic | – |
| COc1cc(/C=C/c2ccc(OCC(=O)NCCCO)cc2)c(/C=N/OCc2ccc(Br)c(F)c2)c(OC)c1 | 48 | Non-toxic | – |
| C#CCO/N=C/c1c(/C=C/c2ccc(OCC(=O)O)cc2)cc(OC)cc1OC | 22.2 | Non-toxic | – |
| COc1cc(/C=C/c2ccc(OCC(=O)O)cc2)c(/C=N/OCc2ccc(C)cc2)c(OC)c1 | 18.9 | Non-toxic | – |
| CCNC(=O)COc1ccc(/C=C/c2cc(OC)cc(OC)c2/C=N/OCc2ccc(Cl)c(F)c2)cc1 | 40.6 | Non-toxic | – |
| COc1cc(/C=C/c2ccc(OCC(=O)O)cc2)c(/C=N/OCc2ccc(Cl)c(F)c2)c(OC)c1 | 23.8 | Non-toxic | – |
| CCOC(=O)COc1ccc(/C=C/c2cc(OC)cc(OC)c2/C=N/OCc2ccc(Cl)c(F)c2)cc1 | 28.1 | Non-toxic | – |
| COc1cc(/C=C/c2ccc(OCC(=O)NCCCO)cc2)c(/C=N/OCc2ccc(Cl)c(F)c2)c(OC)c1 | 61 | Non-toxic | IC50 (RAW264.7 [9]): 17.4 µM |
| COc1cc(/C=C/c2ccc(OCC(=O)O)cc2)c(/C=N/OCc2ccc(Br)cc2)c(OC)c1 | 13.7 | Non-toxic | – |
